# From patent US5416222A, “3-pyrrolidine methanamines wherein the alpha-carbon is substituted by 1 or 2 lower alkyl groups which are intermediates for pyridone-carboxylic acid derivatives” (Daiichi Seiyaku Co., Ltd., priority 1985, dated 1995)
# Like-named read-outs stand apart in the source and are kept apart here.
# Legend:
# E. coli, NIHJ = experiment: antimicrobial activity, MIC, standard process of Japan Society of Chemotherapy; format: cell-based; conditions: for MIC: Escherichia coli, read-out: minimum growth inhibitory concentration (MIC)
# Method: (§1) The antimicrobial activities of the compounds of the present invention were determined according to a standard process designated by the Japan Society of Chemotherapy and the minimum growth inhibitory concentrations (MIC) (μg/ml) the compounds were determined.
# Pr. mirabilis, IF03849 = experiment: as above; format: cell-based; conditions: for MIC: Proteus mirabilis, IF03849, Pr. mirabilis, read-out: minimum growth inhibitory concentration (MIC); for minimum growth inhibitory concentration (MIC): Pr. mirabilis
# Method: as §1
# Pr. vulgaris, 3167 = experiment: as above; format: cell-based; conditions: for MIC: Proteus vulgaris, 3167, Pr. vulgaris, read-out: minimum growth inhibitory concentration (MIC); for minimum growth inhibitory concentration (MIC): Pr. vulgaris
# Method: as §1
# Ps. aeruginosa, 2063 = experiment: as above; format: cell-based; conditions: for MIC: Pseudomonas aeruginosa, 2063, Ps. aeruginosa, read-out: minimum growth inhibitory concentration (MIC); for minimum growth inhibitory concentration (MIC): Ps. aeruginosa
# Method: as §1
# Ps. aeruginosa, 2128 = experiment: as above; format: cell-based; conditions: for MIC: Pseudomonas aeruginosa, 2128, Ps. aeruginosa, read-out: minimum growth inhibitory concentration (MIC); for minimum growth inhibitory concentration (MIC): Ps. aeruginosa
# Method: as §1
# Ps. cepacia, IID1340 = experiment: as above; format: cell-based; conditions: for MIC: Burkholderia cepacia, IID1340, Ps. cepacia, read-out: minimum growth inhibitory concentration (MIC); for minimum growth inhibitory concentration (MIC): Ps. cepacia
# Method: as §1
# Ps. maltophilia, IID1275 = experiment: as above; format: cell-based; conditions: for MIC: Stenotrophomonas maltophilia, IID1275, Ps. maltophilia, read-out: minimum growth inhibitory concentration (MIC); for minimum growth inhibitory concentration (MIC): Ps. maltophilia
# Method: as §1
# S. aureus, 209P = experiment: as above; format: cell-based; conditions: for MIC: Staphylococcus aureus, read-out: minimum growth inhibitory concentration (MIC)
# Method: as §1
# Ser. marcescens, 13001 = experiment: as above; format: cell-based; conditions: for MIC: Serratia marcescens, 13001, Ser. marcescens, read-out: minimum growth inhibitory concentration (MIC); for minimum growth inhibitory concentration (MIC): Ser. marcescens
# Method: as §1
# Sh. flexneri, 2a5503 = experiment: as above; format: cell-based; conditions: for MIC: Shigella flexneri, read-out: minimum growth inhibitory concentration (MIC)
# Method: as §1
# [1] = tested on: Str. faecalis, ATCC 19433; experiment: as above; format: cell-based; conditions: for MIC: Enterococcus faecalis, ATCC19433, Str. faecalis, read-out: minimum growth inhibitory concentration (MIC); for minimum growth inhibitory concentration (MIC): Str. faecalis
# Method: as §1
# Str. pyogenes, G-36 = experiment: as above; format: cell-based; conditions: for MIC: Streptococcus pyogenes, G36, Str. pyogenes, read-out: minimum growth inhibitory concentration (MIC); for minimum growth inhibitory concentration (MIC): Str. pyogenes
# Method: as §1
# physchem = format: physicochemical
# Method: (§2) The water-solubility and acute toxicity of the compounds of the present invention and the comparative compounds, were measured. The results obtained are shown hereunder. The water-solubility was measured by the following method.
# (i) Preparation of standard solution
# About 400 μg of the sample to be measured was accurately weighed (the weight was defined as W μg), and 0.1N NaOH solution was added thereto to bring the whole volume to 50 ml. The UV absorbance of a given amount of the solution was measured and the measured absorbance was defined as A1.
# (ii) Preparation of sample to be measured
# Distilled water was added to the sample to be measured (fine powder) in such amount that the sample was not completely dissolved but suspended, and then the suspension was vigorously agitated at room temperature (between 23° and 26° C.) for 30 minutes. Insoluble matter of the sample was removed therefrom by filtration, after which 3 ml sample of the filtrate (satulated aqueous solution of the sample) was taken. 3 ml of 0.2N NaOH solution was added to the filtrate sample to bring the total volume to 6 ml (i.e. the filtrate was diluted to 50% concentration.) To 1 ml of the resulting solution, 0.1N NaOH solution was further added to bring the total volume to 25 ml […]. In this connection, degree of dilution was occasionally changed, depending on degree of UV absorbance. The UV absorbance of the given amount of the solution was measured and the resulting absorbance was defined to as A2. Where the number of dilution is N, water-solubility (s) is obtained from the following equation: [formula]
# mouse = experiment: acute toxicity to mouse; format: in vivo; conditions: 200 mg/kg; i.v.
# Method: as §2
# (§3) *200 mg/kg; i.v, (deaths/total number) As is obvious from the above
# [2] = absorption after oral administration to rats; format: in vivo; conditions: rat, 20 mg/kg
# Method: The compounds of the present invention and the comparative compound were orally given to rats (one group: 5 rats) at a dose of 20 mg/kg to measure the oral absorption of the compounds. The concentration of the compound in the blood of the rat was measured at 15 minutes, 30 minutes, and 1, 2, 3, 4, and 6 hours after administration.
# Serum half lives (T1/2) were calculated as 0.693/Kel, where Kel is the elimination rate constant determined by linear regression analysis of the natural logarithm of serum concentration-time data. The area under the serum concentration-versus time curve from zero to 6 h (AUC0-6H) was calculated by the trapezoidal method, The results obtained are as follows: […]
# [3] = in words, prior art discussion; cited from earlier work
# [4] = tested on: Gram-negative microorganisms; conditions: in words, prior art discussion; cited from earlier work
# S. epidermidis, 56500 = experiment: antimicrobial activity, MIC, standard process of Japan Society of Chemotherapy; format: cell-based; conditions: for minimum growth inhibitory concentration (MIC): S. epidermidis
# Method: as §1
# acute toxicity to mouse = format: in vivo; conditions: mouse, in vivo, iv; 200 mg/kg
# Method: as §2, §3
# [5] = tested on: Gram-positive microorganisms; conditions: in words, prior art discussion; cited from earlier work
# [6] = tested on: Gram-negative microorganisms; experiment: antimicrobial activity against Gram-negative microorganisms (in words); format: cell-based
# Method: as §1
# [7] = tested on: Gram-positive microorganisms; experiment: antimicrobial activity against Gram-positive microorganisms (in words); format: cell-based
# Method: as §1
Structure (SMILES),"MIC (E. coli, NIHJ)","MIC (Pr. mirabilis, IF03849)","MIC (Pr. vulgaris, 3167)","MIC (Ps. aeruginosa, 2063)","MIC (Ps. aeruginosa, 2128)","MIC (Ps. cepacia, IID1340)","MIC (Ps. maltophilia, IID1275)","MIC (S. aureus, 209P)","MIC (Ser. marcescens, 13001)","MIC (Sh. flexneri, 2a5503)",MIC [1],"MIC (Str. pyogenes, G-36)",water-solubility (prior art compounds) [3],antimicrobial activity against Gram-negative microorganisms (prior art compounds) [4],"minimum growth inhibitory concentration (MIC) (E. coli, NIHJ)","minimum growth inhibitory concentration (MIC) (Pr. mirabilis, IF03849)","minimum growth inhibitory concentration (MIC) (Pr. vulgaris, 3167)","minimum growth inhibitory concentration (MIC) (Ps. aeruginosa, 2063)","minimum growth inhibitory concentration (MIC) (Ps. aeruginosa, 2128)","minimum growth inhibitory concentration (MIC) (Ps. cepacia, IID1340)",other results
"CNCC1CCN(c2c(F)cc3c(=O)c(C(=O)O)cn(C4CC4)c3c2F)C1 (stereo not shown) [Compound B, 1-cyclopropyl-6,8-difluoro-(3-methylaminomethyl-1-pyrolidinyl)-1,4-dihydro-4-oxoquinoline-3-carboxylic acid, reference compound]",≤ 0.05 µg/mL,≤ 0.05 µg/mL,≤ 0.05 µg/mL,0.2 µg/mL,0.2 µg/mL,1.56 µg/mL,0.2 µg/mL,≤ 0.05 µg/mL,≤ 0.05 µg/mL,0.1 µg/mL,0.1 µg/mL,0.1 µg/mL,extremely low water-solubility,strong antimicrobial activity,–,–,–,–,–,–,"solubility at 0.5 h (physchem; water): 80 µg/mL; Acute toxicity to mouse (mouse): 2/5; half-life ([2]; serum half life, 0.693/Kel): 1.55 h; Cmax ([2]; serum, 5 rats per group): 1370 ng/mL; AUC(0-t) at 6 h ([2]; serum, zero to 6 h, trapezoidal method, read-out: AUC0-6H): 3610 ng·h/mL"
"CCNCC1CCN(c2c(F)cc3c(=O)c(C(=O)O)cn(CC)c3c2F)C1 (stereo not shown) [Compound C, 1-Ethyl-7-[3-(ethylamino)methyl]-1-pyrolidinyl-6,8-difluoro-1,4-dihydro-4-oxo-3-quinolinecarboxylic acid, reference compound]",≤ 0.05 µg/mL,0.39 µg/mL,0.2 µg/mL,0.78 µg/mL,0.39 µg/mL,1.56 µg/mL,0.78 µg/mL,0.1 µg/mL,0.2 µg/mL,≤ 0.05 µg/mL,0.39 µg/mL,0.78 µg/mL,good water-solubility,a little weak,–,–,–,–,–,–,"MIC (S. epidermidis, 56500; Staphylococcus epidermidis, 56500, S. epidermidis, read-out: minimum growth inhibitory concentration (MIC)): 0.39 µg/mL; solubility at 0.5 h (physchem; distilled water, room temperature (23° to 26° C.), 30 minutes agitation, read-out: Water solubility): 400 µg/mL; mortality (acute toxicity to mouse): 50%; antimicrobial activity against Gram-positive microorganisms (prior art compounds) [5]: strong antimicrobial activity"
"CCn1cc(C(=O)O)c(=O)c2cc(F)c(N3CCC(C(C)N)C3)c(F)c21 (single isomer, unassigned) [Example 4, 7-[3-(1-Aminoethyl)-1-pyrrolidinyl]-1-ethyl-6,8-difluoro-1,4-dihydro-4-oxoquinoline-3-carboxylic acid]",–,–,–,–,–,–,–,–,–,–,–,–,–,–,≤ 0.05 µg/mL,0.20 µg/mL,0.05 µg/mL,0.20 µg/mL,0.10 µg/mL,0.78 µg/mL,"minimum growth inhibitory concentration (MIC) (Ps. maltophilia, IID1275): 0.39 µg/mL; minimum growth inhibitory concentration (MIC) (S. aureus, 209P): ≤ 0.05 µg/mL; minimum growth inhibitory concentration (MIC) (S. epidermidis, 56500): ≤ 0.05 µg/mL; minimum growth inhibitory concentration (MIC) (Ser. marcescens, 13001): 0.10 µg/mL; minimum growth inhibitory concentration (MIC) (Sh. flexneri, 2a5503): ≤ 0.05 µg/mL; minimum growth inhibitory concentration (MIC) [1]: ≤ 0.05 µg/mL; minimum growth inhibitory concentration (MIC) (Str. pyogenes, G-36): ≤ 0.05 µg/mL; anti-microbial activity against Gram-negative microorganisms [6]: extremely strong anti-microbial activity; anti-microbial activity against Gram-positive microorganisms [7]: extremely strong anti-microbial activity"
"CC(N)C1CCN(c2c(F)cc3c(=O)c(C(=O)O)cn(C4CC4)c3c2F)C1 (single isomer, unassigned) [Example 2, 7-[3-(1-Aminoethyl)-1-pyrrolidinyl]-1-cyclopropyl-6,8-difluoro-1,4-dihydro-4-oxoquinoline-3-carboxylic acid]",–,–,–,–,–,–,–,–,–,–,–,–,–,–,≤ 0.05 µg/mL,≤ 0.05 µg/mL,≤ 0.05 µg/mL,0.20 µg/mL,≤ 0.05 µg/mL,0.39 µg/mL,"minimum growth inhibitory concentration (MIC) (Ps. maltophilia, IID1275): 0.10 µg/mL; minimum growth inhibitory concentration (MIC) (S. aureus, 209P): ≤ 0.05 µg/mL; minimum growth inhibitory concentration (MIC) (S. epidermidis, 56500): ≤ 0.05 µg/mL; minimum growth inhibitory concentration (MIC) (Ser. marcescens, 13001): ≤ 0.05 µg/mL; minimum growth inhibitory concentration (MIC) (Sh. flexneri, 2a5503): ≤ 0.05 µg/mL; minimum growth inhibitory concentration (MIC) [1]: ≤ 0.05 µg/mL; minimum growth inhibitory concentration (MIC) (Str. pyogenes, G-36): ≤ 0.05 µg/mL; anti-microbial activity against Gram-negative microorganisms [6]: extremely strong anti-microbial activity; anti-microbial activity against Gram-positive microorganisms [7]: extremely strong anti-microbial activity"
